Data from ChEMBL document CHEMBL1136668, “Structure-activity relationships of some opiate glycosides” (Bioorg Med Chem Lett, 2003).

Experiments:
[1] = system: Mus musculus; assay: Area under the antinociceptive effect time curve after 4 mg/kg administration in mice.; assay type: functional
[2] = system: Mus musculus; assay: Area under the antinociceptive effect time curve after 2 mg/kg administration in mice.; assay type: functional
[3] = target: T1, Mu-type opioid receptor (Rattus norvegicus, UniProt P33535); assay: mu-2 receptor binding affinity in rat brain by 3H [d-Ala2, (N-Me)Phe4, Gly5-ol] enkephalin displacement.; assay type: tissue-based
T1 sequence (P33535 whole entry): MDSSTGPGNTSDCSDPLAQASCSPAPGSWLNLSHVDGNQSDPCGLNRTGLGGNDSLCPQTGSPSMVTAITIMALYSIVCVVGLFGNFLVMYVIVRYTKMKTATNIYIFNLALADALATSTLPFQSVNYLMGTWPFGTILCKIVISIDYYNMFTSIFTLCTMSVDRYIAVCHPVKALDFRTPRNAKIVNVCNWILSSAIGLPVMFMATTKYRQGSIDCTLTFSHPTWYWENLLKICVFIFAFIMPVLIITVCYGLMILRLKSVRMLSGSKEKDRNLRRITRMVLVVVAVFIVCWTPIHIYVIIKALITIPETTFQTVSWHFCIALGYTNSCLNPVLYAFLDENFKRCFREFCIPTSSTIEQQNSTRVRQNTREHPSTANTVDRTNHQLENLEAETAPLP

[4] = system: Mus musculus; assay: Area under the antinociceptive effect time curve was determined after administration of 8 mg/kg in mice; assay type: functional
[5] = target: T1, Mu-type opioid receptor; assay: mu-1 receptor binding affinity in rat brain by 3H [d-Ala2, d-Leu5] enkephalin displacement.; assay type: tissue-based

Compound	AUEC [1]	AUEC [2]	Ki [3]	AUEC [4]	Ki [5]	Activity [4]
CN1CCC23c4c5ccc(O)c4O[C@H]2[C@@H](OC2OC(C(=O)O)=CC(O)C2O)C=C[C@H]3[C@H]1C5 (some centres undefined)	759 A% min-1	651 %·min	48 nM	701 A% min-1	1.4 nM	–
CC1OC(O[C@H]2C=C[C@H]3[C@H]4Cc5ccc(O)c6c5C3(CCN4C)[C@H]2O6)C(O)C(O)C1O (some centres undefined)	250 A% min-1	421 %·min	6.2 nM	–	0.17 nM	–
CN1CC[C@]23c4c5ccc(O)c4O[C@H]2[C@@H](OC2O[C@@H](C(=O)O)CC(O)C2O)C=C[C@H]3[C@H]1C5 (some centres undefined)	365 A% min-1	18 %·min	57 nM	–	1.9 nM	1046 A% min-1
CN1CC[C@]23c4c5ccc(O)c4O[C@H]2[C@@H](OC2OC(CO)[C@H](O)C(O)C2O)C=C[C@H]3[C@H]1C5 (some centres undefined)	2283 A% min-1	1130 %·min	3.2 nM	–	0.28 nM	–
CN1CCC23c4c5ccc(O)c4O[C@H]2[C@@H](OC2OC(CO)[C@H](O)C(O)C2O)C=C[C@H]3[C@H]1C5 (some centres undefined)	686 A% min-1	682 %·min	4.8 nM	2397 A% min-1	1.2 nM	–
CN1CC[C@]23c4c5ccc(O)c4O[C@H]2[C@@H](O[C@@H]2O[C@H](C(=O)O)C[C@H](O)[C@@H]2O)C=C[C@H]3[C@H]1C5	80 A% min-1	35 %·min	172 nM	380 A% min-1	0.6 nM	–
CN1CCC23c4c5ccc(O)c4O[C@H]2[C@@H](O[C@@H]2O[C@@H](CO)[C@@H](O)[C@H](O)[C@@H]2O)CC[C@H]3[C@H]1C5	2701 A% min-1	1490 %·min	2.5 nM	–	0.21 nM	–
CN1CCC23c4c5ccc(O)c4O[C@H]2[C@@H](O[C@@H]2O[C@@H](C(=O)O)[C@@H](O)[C@H](O)[C@@H]2O)CC[C@H]3[C@H]1C5	1885 A% min-1	1667 %·min	5.7 nM	–	0.25 nM	–
O=C(O)[C@@H]1O[C@@H](O[C@H]2C=C[C@H]3[C@H]4Cc5ccc(O)c6c5C3(CCN4CC3CC3)[C@H]2O6)[C@@H](O)[C@@H](O)[C@@H]1O	599 A% min-1	126 %·min	3.5 nM	266 A% min-1	0.06 nM	–
CN1CCC23c4c5ccc(O)c4O[C@H]2[C@@H](O[C@@H]2O[C@H](C(=O)O)[C@@H](O)[C@H]2O)C=C[C@H]3[C@H]1C5	797 A% min-1	-56 %·min	44 nM	596 A% min-1	1.6 nM	–
CN1CCC23c4c5ccc(O)c4O[C@H]2[C@@H](OC2C=CC(O)C(C(=O)O)O2)C=C[C@H]3[C@H]1C5 (some centres undefined)	130 A% min-1	491 %·min	178 nM	–	3.2 nM	851 A% min-1
O=C(O)[C@@H]1O[C@@H](O[C@H]2CC[C@H]3[C@H]4Cc5ccc(O)c6c5[C@@]3(CCN4)[C@H]2O6)[C@@H](O)[C@@H](O)[C@@H]1O	2461 A% min-1	2196 %·min	–	–	–	–
COc1ccc2c3c1O[C@H]1[C@@H](O[C@@H]4O[C@@H](C(=O)O)[C@@H](O)[C@H](O)[C@@H]4O)C=C[C@H]4[C@@H](C2)N(C)CC[C@@]341	–	–	5700 nM	–	85 nM	–
O=C(O)[C@@H]1O[C@@H](O[C@H]2C=C[C@H]3[C@H]4Cc5ccc(O)c6c5[C@@]3(CCN4)[C@H]2O6)[C@@H](O)[C@@H](O)[C@@H]1O	1614 A% min-1	393 %·min	37 nM	2487 A% min-1	0.98 nM	–
C=CCN1CC[C@]23c4c5ccc(O)c4O[C@H]2[C@@H](O[C@@H]2O[C@@H](C(=O)O)[C@@H](O)[C@H](O)[C@@H]2O)C=C[C@H]3[C@H]1C5	147 A% min-1	221 %·min	10 nM	492 A% min-1	0.2 nM	–
O=C(O)CN1CC[C@]23c4c5ccc(O)c4O[C@H]2[C@@H](O[C@@H]2O[C@@H](C(=O)O)[C@@H](O)[C@H](O)[C@@H]2O)C=C[C@H]3[C@H]1C5	45 A% min-1	266 %·min	1620 nM	322 A% min-1	33 nM	–
CN1CCC23c4c5ccc(O)c4O[C@H]2[C@@H](OC2CCCC(C(=O)O)O2)C=C[C@H]3[C@H]1C5 (some centres undefined)	26 A% min-1	230 %·min	168 nM	478 A% min-1	0.51 nM	–
CN1CC[C@]23c4c5ccc(O)c4O[C@H]2[C@@H](O[C@@H]2O[C@H](C(=O)O)[C@@H](O)[C@H](O)[C@H]2O)C=C[C@H]3[C@H]1C5 [MORPHINE GLUCURONIDE]	1359 A% min-1	–	26 nM	–	1.5 nM	–
CN1CC[C@]23c4c5ccc(O)c4O[C@H]2[C@@H](O)C=C[C@H]3[C@H]1C5 [MORPHINE]	1987 A% min-1	–	–	–	–	–
